{"source": "patent US20020137929A1", "about": "“1 - (3-heterocyclylphenyl) isothiourea, -isourea, -guanidine and -amidine herbicidal agents” (Intellectual Property Department, BASF Aktiengesellschaft, priority 1998, published 2002)", "key": {"[1]": {"system": "CASOB (Sicklepod)", "test": "Postemergence herbicidal evaluation", "format": "in vivo, Cassia obtusifolia", "how_it_was_run": "(§1)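 Visual 0-9 injury score (stand, vigor, malformation, size, chlorosis, appearance vs untreated) taken four to five weeks post-spray, averaged across repeat tests. Test plants about two weeks old; foliar spray of acetone/water (1:1) with 0.5% surfactant delivering ~0.0156-0.500 kg active/ha.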"}, "[2]": {"system": "CHEAL (Lambsquarters, Common)", "test": "Postemergence herbicidal evaluation", "format": "in vivo, Chenopodium album", "how_it_was_run": "as §1"}, "[3]": {"system": "ECHCG (Barnyardgrass)", "test": "Postemergence herbicidal evaluation", "format": "in vivo, Echinochloa crus-galli", "how_it_was_run": "as §1"}, "[4]": {"system": "ORYSAT (Rice, Tebonnet)", "test": "Postemergence herbicidal evaluation", "format": "in vivo, Oryza sativa, (L.) Tebonnet", "how_it_was_run": "as §1"}, "[5]": {"system": "GALAP (Galium)", "test": "Preemergence herbicidal evaluation", "format": "in vivo, Galium aparine", "conditions": "rated 4-5 weeks after treatment", "how_it_was_run": "(§2)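 Test compound, dissolved in aqueous acetone, was sprayed over planted soil cups at an equivalent of about 0.0156 to 0.500 kg/ha; seeds had been mixed with potting soil. Greenhouse growth followed, with visual 0-9 scoring of injury at four to five weeks.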"}, "[6]": {"system": "SETVI (Foxtail, Green)", "test": "Preemergence herbicidal evaluation", "format": "in vivo, Setaria viridis", "conditions": "rated 4-5 weeks after treatment", "how_it_was_run": "as §2"}, "[7]": {"system": "GLXMAW (Soybean, Williams)", "test": "Preemergence herbicidal evaluation", "format": "in vivo, Glycine max, (L.) Merr. cv Williams", "conditions": "rated 4-5 weeks after treatment", "how_it_was_run": "as §2"}, "[8]": {"system": "ORYSAT (Rice, Tebonnet)", "test": "Preemergence herbicidal evaluation", "format": "in vivo, Oryza sativa, (L.) Tebonnet", "conditions": "rated 4-5 weeks after treatment", "how_it_was_run": "as §2"}, "[9]": {"system": "TRZAWR (Wheat, Winter, cv Riband)", "test": "Preemergence herbicidal evaluation", "format": "in vivo, Triticum aestivum", "conditions": "rated 4-5 weeks after treatment", "how_it_was_run": "as §2"}, "[10]": {"system": "ZEAMX (Corn, Field)", "test": "Preemergence herbicidal evaluation", "format": "in vivo, Zea mays", "conditions": "rated 4-5 weeks after treatment", "how_it_was_run": "as §2"}, "[11]": {"system": "CYPIR (Rice Flatsedge)", "test": "Preemergence weed control under flooded paddy conditions", "format": "in vivo, Cyperus iria", "conditions": "rated 3-4 weeks after treatment", "how_it_was_run": "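Herbicidal effect is scored visually on a 0-9 scale against an untreated control, three to four weeks after compounds are pipetted into the flood water (1.5 to 3 cm deep) over seeds planted in silt loam at 0.5 cm depth. Rates: about 0.0313 to 0.500 kg/ha.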"}, "[12]": {"system": "MOOVA (Monochoria)", "test": "Preemergence weed control under flooded paddy conditions", "format": "in vivo, Monochoria vaginalis", "conditions": "rated 3-4 weeks after treatment", "how_it_was_run": "(§3)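 Ratings on a 0-9 visual scale cover stand, vigor, malformation, size, chlorosis and overall appearance relative to a control, taken three to four weeks post-treatment. Application was into flood water over freshly sown silt loam at roughly 0.0313 to 0.500 kg/ha.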"}, "[13]": {"system": "SAGPY (Arrowhead (Pygmaea))", "test": "Preemergence weed control under flooded paddy conditions", "format": "in vivo, Sagittaria pygmaea", "conditions": "rated 3-4 weeks after treatment", "how_it_was_run": "as §3"}, "[14]": {"system": "CYPSE (Flatsedge)", "test": "Postemergence weed control under flooded paddy conditions", "format": "in vivo, Cyperus serotinus", "conditions": "postemergence weeds, rated 3 to 4 weeks after treatment", "how_it_was_run": "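Flood-water application, about 0.0313–0.500 kg/ha a.i. in aqueous/acetone 50/50 v/v; water depth 1.5–3 cm throughout. Weeds 3–5 cm, rice 1.5–2.5 leaf. Greenhouse; 0–9 visual rating vs control at 3–4 wk.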"}}}
{"smiles": "CCOC(=O)CN1C(=O)C(CC(=O)OC(C)C)SC1=Nc1cc(-n2c(=O)cc(C(F)(F)F)n(C)c2=O)c(F)cc1Cl", "note": "(centres unmarked) [Compound 60, 2-{{2-Chloro-5-[3,6-dihydro-3-methyl-2,6-dioxo-4-(trifluoromethyl)-1(2H)-pyrimidinyl]-4-fluoro-phenyl}imino}-4-oxo-3,5-thiazolidinediacetic acid, 3-ethyl isopropyl ester]", "values": [{"measurement": "Postemergence herbicidal rating CASOB", "setting": "[1]; Rate 0.0158 kg/ha", "value": 0.0}, {"measurement": "Postemergence herbicidal rating CASOB", "setting": "[1]; Rate 0.0315 kg/ha", "value": 0.0}, {"measurement": "Postemergence herbicidal rating CASOB", "setting": "[1]; Rate 0.0630 kg/ha", "value": 3.0}, {"measurement": "Postemergence herbicidal rating CHEAL", "setting": "[2]; Rate 0.0158 kg/ha", "value": 4.0}, {"measurement": "Postemergence herbicidal rating CHEAL", "setting": "[2]; Rate 0.0315 kg/ha", "value": 4.0}, {"measurement": "Postemergence herbicidal rating CHEAL", "setting": "[2]; Rate 0.0630 kg/ha", "value": 9.0}, {"measurement": "Postemergence herbicidal rating ECHCG", "setting": "[3]; Rate 0.0158 kg/ha", "value": 0.0}, {"measurement": "Postemergence herbicidal rating ECHCG", "setting": "[3]; Rate 0.0315 kg/ha", "value": 0.0}, {"measurement": "Postemergence herbicidal rating ECHCG", "setting": "[3]; Rate 0.0630 kg/ha", "value": 0.0}, {"measurement": "Postemergence herbicidal rating ORYSAT", "setting": "[4]; Rate 0.0158 kg/ha", "value": 3.0}, {"measurement": "Postemergence herbicidal rating ORYSAT", "setting": "[4]; Rate 0.0315 kg/ha", "value": 3.0}, {"measurement": "Postemergence herbicidal rating ORYSAT", "setting": "[4]; Rate 0.0630 kg/ha", "value": 5.0}, {"measurement": "Preemergence herbicidal rating GALAP", "setting": "[5]; rate 0.0156 kg/ha", "value": 0.0}, {"measurement": "Preemergence herbicidal rating GALAP", "setting": "[5]; rate 0.0313 kg/ha", "value": 0.0}, {"measurement": "Preemergence herbicidal rating GALAP", "setting": "[5]; rate 0.0625 kg/ha", "value": 0.0}, {"measurement": "Preemergence herbicidal rating GALAP", "setting": "[5]; rate 0.1250 kg/ha", "value": 0.0}, {"measurement": "Preemergence herbicidal rating GALAP", "setting": "[5]; rate 0.2500 kg/ha", "value": 0.0}, {"measurement": "Preemergence herbicidal rating SETVI", "setting": "[6]; rate 0.0156 kg/ha", "value": 0.0}, {"measurement": "Preemergence herbicidal rating SETVI", "setting": "[6]; rate 0.0313 kg/ha", "value": 0.5}, {"measurement": "Preemergence herbicidal rating SETVI", "setting": "[6]; rate 0.0625 kg/ha", "value": 0.5}, {"measurement": "Preemergence herbicidal rating SETVI", "setting": "[6]; rate 0.1250 kg/ha", "value": 4.5}, {"measurement": "Preemergence herbicidal rating SETVI", "setting": "[6]; rate 0.2500 kg/ha", "value": 4.5}, {"measurement": "Preemergence herbicidal rating SETVI", "setting": "[6]; rate 0.5000 kg/ha", "value": 8.0}, {"measurement": "Preemergence herbicidal rating GLXMAW", "setting": "[7]; rate 0.0156 kg/ha", "value": 1.0}, {"measurement": "Preemergence herbicidal rating GLXMAW", "setting": "[7]; rate 0.0313 kg/ha", "value": 0.5}, {"measurement": "Preemergence herbicidal rating GLXMAW", "setting": "[7]; rate 0.0625 kg/ha", "value": 1.5}, {"measurement": "Preemergence herbicidal rating GLXMAW", "setting": "[7]; rate 0.1250 kg/ha", "value": 3.0}, {"measurement": "Preemergence herbicidal rating GLXMAW", "setting": "[7]; rate 0.2500 kg/ha", "value": 3.5}, {"measurement": "Preemergence herbicidal rating GLXMAW", "setting": "[7]; rate 0.5000 kg/ha", "value": 6.0}, {"measurement": "Preemergence herbicidal rating ORYSAT", "setting": "[8]; rate 0.0156 kg/ha", "value": 0.0}, {"measurement": "Preemergence herbicidal rating ORYSAT", "setting": "[8]; rate 0.0313 kg/ha", "value": 0.0}, {"measurement": "Preemergence herbicidal rating ORYSAT", "setting": "[8]; rate 0.0625 kg/ha", "value": 0.0}, {"measurement": "Preemergence herbicidal rating ORYSAT", "setting": "[8]; rate 0.1250 kg/ha", "value": 0.5}, {"measurement": "Preemergence herbicidal rating ORYSAT", "setting": "[8]; rate 0.2500 kg/ha", "value": 2.0}, {"measurement": "Preemergence herbicidal rating ORYSAT", "setting": "[8]; rate 0.5000 kg/ha", "value": 7.0}, {"measurement": "Preemergence herbicidal rating TRZAWR", "setting": "[9]; rate 0.0156 kg/ha", "value": 0.0}, {"measurement": "Preemergence herbicidal rating TRZAWR", "setting": "[9]; rate 0.0313 kg/ha", "value": 0.0}, {"measurement": "Preemergence herbicidal rating TRZAWR", "setting": "[9]; rate 0.0625 kg/ha", "value": 0.0}, {"measurement": "Preemergence herbicidal rating TRZAWR", "setting": "[9]; rate 0.1250 kg/ha", "value": 1.0}, {"measurement": "Preemergence herbicidal rating TRZAWR", "setting": "[9]; rate 0.2500 kg/ha", "value": 1.0}, {"measurement": "Preemergence herbicidal rating ZEAMX", "setting": "[10]; rate 0.0156 kg/ha", "value": 0.0}, {"measurement": "Preemergence herbicidal rating ZEAMX", "setting": "[10]; rate 0.0313 kg/ha", "value": 0.0}, {"measurement": "Preemergence herbicidal rating ZEAMX", "setting": "[10]; rate 0.0625 kg/ha", "value": 0.5}, {"measurement": "Preemergence herbicidal rating ZEAMX", "setting": "[10]; rate 0.1250 kg/ha", "value": 1.5}, {"measurement": "Preemergence herbicidal rating ZEAMX", "setting": "[10]; rate 0.2500 kg/ha", "value": 3.0}, {"measurement": "Preemergence herbicidal rating ZEAMX", "setting": "[10]; rate 0.5000 kg/ha", "value": 8.0}, {"measurement": "CYPIR herbicidal effect rating", "setting": "[11]; 0.0313 kg/ha", "value": 3.0}, {"measurement": "CYPIR herbicidal effect rating", "setting": "[11]; 0.0625 kg/ha", "value": 3.0}, {"measurement": "CYPIR herbicidal effect rating", "setting": "[11]; 0.1250 kg/ha", "value": 6.0}, {"measurement": "CYPIR herbicidal effect rating", "setting": "[11]; 0.2500 kg/ha", "value": 6.0}, {"measurement": "MOOVA herbicidal effect rating", "setting": "[12]; 0.0313 kg/ha", "value": 9.0}, {"measurement": "MOOVA herbicidal effect rating", "setting": "[12]; 0.0625 kg/ha", "value": 9.0}, {"measurement": "MOOVA herbicidal effect rating", "setting": "[12]; 0.1250 kg/ha", "value": 9.0}, {"measurement": "MOOVA herbicidal effect rating", "setting": "[12]; 0.2500 kg/ha", "value": 9.0}, {"measurement": "SAGPY herbicidal effect rating", "setting": "[13]; 0.0313 kg/ha", "value": 3.0}, {"measurement": "SAGPY herbicidal effect rating", "setting": "[13]; 0.0625 kg/ha", "value": 4.0}, {"measurement": "SAGPY herbicidal effect rating", "setting": "[13]; 0.1250 kg/ha", "value": 9.0}, {"measurement": "SAGPY herbicidal effect rating", "setting": "[13]; 0.2500 kg/ha", "value": 9.0}, {"measurement": "Herbicidal rating CYPSE", "setting": "[14]; Rate 0.0313 kg/ha", "value": 2.0}, {"measurement": "Herbicidal rating CYPSE", "setting": "[14]; Rate 0.0625 kg/ha", "value": 2.0}, {"measurement": "Herbicidal rating CYPSE", "setting": "[14]; Rate 0.1250 kg/ha", "value": 4.0}, {"measurement": "Herbicidal rating CYPSE", "setting": "[14]; Rate 0.2500 kg/ha", "value": 4.0}]}
